In patent US11660345B2, “Method and composition for enhancing the delivery of anti-platelet drugs for the treatment of acute stroke” (Realinn Life Science Limited, priority 2013, dated 2023):

Columns and labels:
[1] = system: mouse stroke model; conditions: intravenous injection of 100 mg/kg; cited from earlier work
[2] = system: middle cerebral artery occlusion (MCAO) model in mice; assay: Brain infarct volume, atrophy and edema by Nissl staining in mice of the middle cerebral artery occlusion model; format: in vivo; conditions: 10 mg/kg (2 mg/mL)
Procedure: (§1) In order to simulate human brain stroke, an intravascular suture-occluded method was employed to establish a middle cerebral artery occlusion (MCAO) model in mice. Prior to experimentation, the body weights of the mice were measured and rectum temperatures were recorded. The mice were anesthetized with 4% halothane in 100% O2 followed by 0.5-1% halothane in 70% N2O and 30% O2 to maintain the anesthetized status. The mouse cerebral artery occlusion model is established according to the Tamura method (Focal cerebral ischemia in the rat: 1. Description of technique and early neuropathological consequences following middle cerebral artery occlusion. J Cereb Blood Flow Metab. 1981; 1(1):53-60. Tamura A, Graham D I, McCulloch J, Teasdale G M). The mouse was secured in prone position and an incision was introduced to the lateral of the head and neck portion by a scalpel to expose the right common carotid artery. The middle cerebral artery (MCA) was cauterized to simulate ischemia. […]
The mice of the middle cerebral artery occlusion model were sacrificed 15 days after the treatment with the three groups of drugs. Brain samples of the mice were collected and local ischemic injuries on the neuron gray matter of the mice brains were evaluated with Nissl staining using cresyl violet. […]

[3] = system: middle cerebral artery occlusion (MCAO) model in mice; assay: Neurobehavioral test (motor neurobehavior evaluation score 0-4) in mice of the middle cerebral artery occlusion model; format: in vivo; conditions: 10 mg/kg (2 mg/mL) tail vein injection 5 hours after stroke, higher score = higher motor dysfunction (vehicle control 3)
Procedure: as §1, with “M).” for “M). The mouse was secured in prone position and an incision was introduced to the lateral of the head and neck portion by a scalpel to expose the right common carotid artery. The middle cerebral artery (MCA) was cauterized to simulate ischemia.”
The body weights of the mice in the three test groups in Example 4 were measured and neurological examination was conducted concurrently. […] Since 15 days after stroke is no longer the acute stroke phase, the invention evaluated the status of the motor system of mice treated within the acute stroke phase and those treated after the acute stroke phase. The motor responses to be assessed are listed in Table 1 (Middle cerebral artery occlusion in the rat by intraluminal suture. Neurological and pathological evaluation of an improved model. Belayev L, Alonso O F, Busto R, Zhao W, Ginsberg M D. Stroke. 1996 September; 27(9):1616-22; discussion 1623). […]

| Molecule | hypotension / mortality (in words) [1] | infarct volume (in words) [1] | brain infarct volume ([2]; 5 hours after stroke, 15 days after treatment (vehicle control about 14%)) | brain atrophy (Nissl staining / infarct volume calculation) ([2]; 15 days after treatment) | score of the motor neurobehavior evaluation ([3]; after 7 days of treatment) | score of the motor neurobehavior evaluation ([3]; after 15 days of treatment) |
| --- | --- | --- | --- | --- | --- | --- |
| OCCN(CCO)c1nc(N2CCCCC2)c2nc(N(CCO)CCO)nc(N3CCCCC3)c2n1 [Dipyridamole] | causes hypotension and increases the mortality rate | can efficiently reduce the infarct volume |  |  |  |  |
| recombinant-type plasminogen activator: recombinant-type plasminogen activator (rt-PA), thrombolytic agent |  |  | about 18% | atrophied after 15 days | 2.3 | 2.6 |
